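Five compound concentrations were applied to cells in 96-well plates for 48 hours; endpoints were derived by simple linear interpolation of the resulting dose-response curve. Here, GI50 denotes the concentration required for 50% inhibition of growth. TGI is the concentration that stops growth completely.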
Key:
Assay in all cases: inhibition of tumour cell growth, NCI panel, 48 h
NCI/ADR-RES ovarian = system: NCI/ADR-RES ovarian
UO-31 renal = system: UO-31 renal
HOP-62 NSCLC = system: HOP-62 NSCLC
SF-295 CNS = system: SF-295 CNS
SF-268 CNS = system: SF-268 CNS
COLO 205 colon = system: COLO 205 colon
OVCAR-4 ovarian = system: OVCAR-4 ovarian
SK-OV-3 ovarian = system: SK-OV-3 ovarian
A498 renal = system: A498 renal
SK-MEL-5 melanoma = system: SK-MEL-5 melanoma

## COc1cccc(F)c1C(=O)c1cnc(NC2CCN(S(C)(=O)=O)CC2)nc1N
NCI/ADR-RES ovarian
  GI50: 6.9 µM
  TGI: > 25 µM
UO-31 renal
  GI50: 4.6 µM
  TGI: 21.9 µM
HOP-62 NSCLC
  GI50: 4.64 µM
  TGI: 23 µM
SF-295 CNS
  GI50: 3 µM
  TGI: > 25 µM
SF-268 CNS
  GI50: 5.96 µM
  TGI: > 21.4 µM
COLO 205 colon
  GI50: 1.49 µM
  TGI: 5.69 µM
OVCAR-4 ovarian
  GI50: 5.61 µM
  TGI: > 25 µM
SK-OV-3 ovarian
  GI50: 13 µM
  TGI: > 25 µM
A498 renal
  GI50: 3.58 µM
  TGI: 8.72 µM
SK-MEL-5 melanoma
  GI50: 2.06 µM
  TGI: > 23.3 µM

## Cc1cc(C)c2c(n1)sc1c(Nc3ccc(Cl)cc3)ncnc12
NCI/ADR-RES ovarian
  GI50: < 0.01 µM
  TGI: > 100 µM
UO-31 renal
  GI50: < 0.01 µM
HOP-62 NSCLC
  GI50: < 0.01 µM
SF-295 CNS
  GI50: 0.0209 µM
  TGI: > 100 µM
SF-268 CNS
  GI50: < 0.01 µM
  TGI: > 100 µM
COLO 205 colon
  GI50: 0.0314 µM
  TGI: > 100 µM
OVCAR-4 ovarian
  GI50: > 100 µM
  TGI: > 100 µM
SK-OV-3 ovarian
  GI50: 0.0418 µM
  TGI: > 100 µM
A498 renal
  GI50: < 0.0133 µM
  TGI: 0.491 µM
SK-MEL-5 melanoma
  GI50: < 0.0141 µM
  TGI: > 100 µM

## CC(=O)OC1COC(Oc2c(C)c3c4c(c2O)[C@@H](C)CC[C@@H]4[C@@H](C)C[C@H]3C=C(C)C)C(O)C1OC(C)=O (stereo partly specified)
NCI/ADR-RES ovarian
  GI50: 9.2 µM
  TGI: 23.7 µM
UO-31 renal
  GI50: 17.3 µM
  TGI: 40.9 µM
HOP-62 NSCLC
  GI50: 20 µM
  TGI: 36.1 µM
SF-295 CNS
  GI50: 17.1 µM
  TGI: 33.2 µM
SF-268 CNS
  GI50: 27.6 µM
  TGI: > 100 µM
COLO 205 colon
  GI50: 15.5 µM
  TGI: 57.4 µM
OVCAR-4 ovarian
  GI50: 21.6 µM
  TGI: 49.3 µM
SK-OV-3 ovarian
  GI50: 20.8 µM
  TGI: 37.1 µM
A498 renal
  GI50: 23.5 µM
  TGI: 45.7 µM
SK-MEL-5 melanoma
  GI50: 24.7 µM
  TGI: 52.7 µM

## c1ccc(-c2nnc(-c3ccccn3)s2)nc1
NCI/ADR-RES ovarian
  GI50: > 100 µM
  TGI: > 100 µM
UO-31 renal
  GI50: 22.3 µM
  TGI: > 100 µM
HOP-62 NSCLC
  GI50: > 100 µM
  TGI: > 100 µM
SF-295 CNS
  GI50: > 100 µM
  TGI: > 100 µM
SF-268 CNS
  GI50: > 100 µM
  TGI: > 100 µM
COLO 205 colon
  GI50: > 100 µM
  TGI: > 100 µM
OVCAR-4 ovarian
  GI50: > 100 µM
  TGI: > 100 µM
SK-OV-3 ovarian
  GI50: > 100 µM
  TGI: > 100 µM
A498 renal
  GI50: > 100 µM
  TGI: > 100 µM
SK-MEL-5 melanoma
  GI50: > 100 µM
  TGI: > 100 µM

## COc1cc(-c2oc(=O)ccc2C#Cc2ccccn2)cc(OC)c1OC
NCI/ADR-RES ovarian
  GI50: 1.09 µM
UO-31 renal
  GI50: 3.22 µM
  TGI: > 100 µM
HOP-62 NSCLC
  GI50: 2.42 µM
  TGI: > 100 µM
SF-295 CNS
  GI50: 0.224 µM
  TGI: 2.01 µM
SF-268 CNS
  GI50: 5.56 µM
  TGI: > 100 µM
COLO 205 colon
  GI50: 3.72 µM
  TGI: > 30.9 µM
OVCAR-4 ovarian
  GI50: 9.65 µM
  TGI: > 100 µM
SK-OV-3 ovarian
  GI50: 3.43 µM
  TGI: 97.7 µM
A498 renal
  GI50: 3.81 µM
  TGI: > 48.3 µM
SK-MEL-5 melanoma
  GI50: 2.09 µM
  TGI: 11.2 µM

## N#Cc1c(NC(=O)NCc2ccccc2)sc2c1CCCCC2
NCI/ADR-RES ovarian
  GI50: 0.42 µM
  TGI: 27.1 µM
UO-31 renal
  GI50: 0.626 µM
  TGI: > 100 µM
HOP-62 NSCLC
  GI50: 0.706 µM
  TGI: > 64.2 µM
SF-295 CNS
  GI50: 0.425 µM
  TGI: 24 µM
SF-268 CNS
  GI50: 1.52 µM
  TGI: > 100 µM
COLO 205 colon
  GI50: 0.521 µM
  TGI: 3.74 µM
OVCAR-4 ovarian
  GI50: 1.32 µM
  TGI: > 100 µM
SK-OV-3 ovarian
  GI50: 0.799 µM
  TGI: > 100 µM
A498 renal
  GI50: 0.218 µM
  TGI: 1.1 µM
SK-MEL-5 melanoma
  GI50: 0.478 µM
  TGI: 3.6 µM

## O=C(Nc1ccc(Br)cc1F)c1cc(F)ccc1O
NCI/ADR-RES ovarian
  GI50: 0.533 µM
  TGI: 5.4 µM
UO-31 renal
  GI50: 0.21 µM
  TGI: 1.27 µM
HOP-62 NSCLC
  GI50: 1.56 µM
  TGI: 7.82 µM
SF-295 CNS
  GI50: 1.76 µM
  TGI: 3.42 µM
SF-268 CNS
  GI50: 0.558 µM
  TGI: 10.1 µM
COLO 205 colon
  GI50: 2.46 µM
  TGI: 6.56 µM
OVCAR-4 ovarian
  GI50: 0.612 µM
  TGI: > 27.8 µM
SK-OV-3 ovarian
  GI50: 0.405 µM
  TGI: 2.55 µM
A498 renal
  GI50: 0.172 µM
  TGI: 0.667 µM
SK-MEL-5 melanoma
  GI50: 0.227 µM
  TGI: 0.541 µM

## N#Cc1c(N)nc(N2CCOCC2)c(C#N)c1-c1ccncc1
NCI/ADR-RES ovarian
  GI50: > 100 µM
  TGI: > 100 µM
UO-31 renal
  GI50: 31.3 µM
  TGI: > 100 µM
HOP-62 NSCLC
  GI50: 29.6 µM
  TGI: > 100 µM
SF-295 CNS
  GI50: 44.3 µM
  TGI: > 100 µM
SF-268 CNS
  GI50: > 100 µM
  TGI: > 100 µM
COLO 205 colon
  GI50: > 100 µM
  TGI: > 100 µM
OVCAR-4 ovarian
  GI50: > 100 µM
  TGI: > 100 µM
SK-OV-3 ovarian
  GI50: 37 µM
  TGI: > 100 µM
A498 renal
  GI50: 18.6 µM
  TGI: 66.1 µM
SK-MEL-5 melanoma
  GI50: > 100 µM
  TGI: > 100 µM

## COc1ccccc1/C=N\N/C(N)=N\N=C\c1ccccc1OC
NCI/ADR-RES ovarian
  GI50: 0.39 µM
UO-31 renal
  GI50: 2.31 µM
  TGI: > 23.1 µM
HOP-62 NSCLC
  GI50: 0.586 µM
  TGI: 6.68 µM
SF-295 CNS
  GI50: < 0.0478 µM
  TGI: 0.163 µM
SF-268 CNS
  GI50: 0.432 µM
  TGI: 26.9 µM
COLO 205 colon
  GI50: 0.232 µM
  TGI: 0.631 µM
OVCAR-4 ovarian
  GI50: 1.05 µM
  TGI: > 100 µM
SK-OV-3 ovarian
  GI50: 0.484 µM
  TGI: 7.62 µM
A498 renal
  GI50: 0.372 µM
  TGI: 19.4 µM
SK-MEL-5 melanoma
  GI50: 0.371 µM
  TGI: 4.14 µM

## COC(=O)COc1ccccc1/C=C1\N=C(c2ccccc2)N(c2cc(C(F)(F)F)ccc2Cl)C1=O
NCI/ADR-RES ovarian
  GI50: 45.8 µM
  TGI: > 100 µM
UO-31 renal
  GI50: 22.3 µM
  TGI: 52.8 µM
HOP-62 NSCLC
  GI50: 45 µM
  TGI: > 100 µM
SF-295 CNS
  GI50: > 100 µM
  TGI: > 100 µM
SF-268 CNS
  GI50: 29.8 µM
  TGI: > 100 µM
COLO 205 colon
  GI50: 31.7 µM
  TGI: > 100 µM
OVCAR-4 ovarian
  GI50: 39.5 µM
  TGI: > 100 µM
SK-OV-3 ovarian
  GI50: 57.7 µM
  TGI: > 100 µM
A498 renal
  GI50: > 100 µM
  TGI: > 100 µM
SK-MEL-5 melanoma
  GI50: 42.9 µM
  TGI: > 100 µM

## CCOC(=O)c1ccc(NC(=O)Oc2ccc3c(C)cc(=O)oc3c2)cc1
NCI/ADR-RES ovarian
  TGI: > 100 µM
UO-31 renal
  TGI: > 100 µM
HOP-62 NSCLC
  TGI: 98.6 µM
SF-295 CNS
  TGI: > 100 µM
SF-268 CNS
  TGI: > 100 µM
COLO 205 colon
  TGI: > 100 µM
OVCAR-4 ovarian
  TGI: > 100 µM
SK-OV-3 ovarian
  TGI: 94.4 µM
A498 renal
  TGI: > 100 µM
SK-MEL-5 melanoma
  TGI: 29.1 µM
